According to US20090275557A1, “Novel Composition for Treatment of Diseases Related to Activated Lymphocytes” (Immune Control, Inc., priority 2008, published 2009):
Values joined by “and” are separate entries in the source; they are usually repeats but may differ in a detail not shown here. Equal entries are not always repeated. Where two headings read alike, the source gives them in different places.

Tests used:
[1] = Pharmacokinetic study, oral gavage in fasted male Sprague-Dawley rats; assay type: in vivo, rat; conditions: for dose absorbed after oral dosing: indirectly indicated by the average bioavailability, oral 10 mg/kg
Description: ICI-1259 and ICI-1260 were supplied as powders and stored frozen until used. Dosing solutions in phosphate buffered saline were prepared at 1 mg/ml. These solutions were then evaluated in fasted male Sprague-Dawley rats. The rats were fitted with a jugular vein cannula for blood sampling. Rats were also fitted with an additional jugular vein cannula, or intradudodenal cannula as needed. Rats were given a commercial rodent diet ad libitum prior to study initiation. Food was then withheld from the animals for a minimum of twelve hours prior to dosing, until four hours postdose when food was returned. Water was supplied ad libitum. Three rats were used in each study, unless otherwise indicated.
For both ICI-1259 and ICI-1260, rats were given a 10 mg/kg dose from a 1 mg/ml solution. The appropriate volume of solution was given as a single bolus dose at time zero on the day of dosing. Blood samples were taken at predose, 5 minutes after dosing, 10 minutes after dosing, 15 minutes after dosing, 30 minutes after dosing, 1 hour after dosing, 2 hours after dosing, 4 hours after dosing, 6 hours after dosing, and 8 hours after dosing.

[2] = tested on: bovine type 2 collagen immunized rats; assay: Collagen-induced arthritis assay, IP injection protocol, ankle diameter; assay type: in vivo, rat
Description: Female Lewis rats (CR) weighing between 125-200 g were immunized with bovine type 2 collagen, 2 mg/ml in a 1:1 solution of 0.01 N acetic acid and Freund's incomplete adjuvant (“FIA”). A 0.1 ml portion of the collagen solution was injected id (intradermally) at three sites on the rat. Rats were immunized with the collagen solution on days 1 and 6 of the study. […] On day 9 (study day “0”), baseline ankle diameters were measured. On days 10-15 (study days 1-6), the rats were then treated, via oral gavage, with either 1, 5, or 25 mg/kg of one of ICI-1259 or ICI-1260, prepared as described below. Ankle diameter measurements were measured on each of days 10-16.
Compounds ICI-1259, ICI-1260, ICI-1505, and ICI-1506 were administered via IP injection to treat collagent-induced arthritis in a variation of the experiments described above. Under the protocol of the IP injection experiments, animal were immunized with Bovine Type 2 collagen as previously described. […] On day 9 (study day “0”), baseline ankle diameters were measured. On days 10-12 (study days 1-3), the rats were then treated once per day, via IP injection, with one of ICI-1259, ICI-1260, ICI-1505, or ICI-1506 at 10 mg/kg. Ankle diameter in the immunized rodents was measured on each of days 10-13 as well as on day 14. […] See FIG. 18 (ICI-1259, ICI-1260, and ICI-1505) and FIG. 19 (ICI-1506).
In a separate study, using the IP injection protocol described above, ICI-1259 and 1260 were each dosed at 2 mg/kg and 0.4 mg/kg.

[3] = individual rats, oral gavage 10 mg/kg, 10 mg/kg
[4] = individual rats, oral gavage 10 mg/kg, 0.25 hr, 10 mg/kg
[5] = individual rats, oral gavage 10 mg/kg, 0.50 hr, 10 mg/kg
[6] = individual rats, oral gavage 10 mg/kg, 1.0 hr, 10 mg/kg
[7] = individual rats, oral gavage 10 mg/kg, 2.0 hr, 10 mg/kg
[8] = individual rats, oral gavage 10 mg/kg, 4.0 hr, 10 mg/kg
[9] = individual rats, oral gavage 10 mg/kg, 6.0 hr, 10 mg/kg
[10] = individual rats, oral gavage 10 mg/kg, 8.0 hr, 10 mg/kg
[11] = individual rats, oral gavage 10 mg/kg, dose normalized AUC divided by average intravenous AUC, 10 mg/kg
[12] = male, Sprague-Dawley, rat, plasma, po, 10 mg/kg, individual rats, oral gavage 10 mg/kg
[13] = male, Sprague-Dawley, rat, plasma, po, 10 mg/kg, individual rats, oral gavage 10 mg/kg, 2.0 hr
[14] = male, Sprague-Dawley, rat, plasma, po, 10 mg/kg, individual rats, oral gavage 10 mg/kg, 8.0 hr
[15] = male, Sprague-Dawley, rat, plasma, po, 10 mg/kg, individual rats, oral gavage 10 mg/kg, dose normalized AUC divided by average intravenous AUC, read-out: Bioavailability
[16] = male, Sprague-Dawley, rat, plasma, po, 10 mg/kg, individual rats, oral gavage 10 mg/kg, read-out: Cmax
[17] = male, Sprague-Dawley, rat, plasma, po, 10 mg/kg, individual rats, oral gavage 10 mg/kg, read-out: tmax
[18] = male, Sprague-Dawley, rat, plasma, po, 10 mg/kg, mean (average), oral gavage 10 mg/kg, read-out: Bioavailability
[19] = male, Sprague-Dawley, rat, plasma, po, 10 mg/kg, mean, oral gavage 10 mg/kg
[20] = male, Sprague-Dawley, rat, plasma, po, 10 mg/kg, mean, oral gavage 10 mg/kg, 0.25 hr
[21] = male, Sprague-Dawley, rat, plasma, po, 10 mg/kg, mean, oral gavage 10 mg/kg, 0.50 hr
[22] = male, Sprague-Dawley, rat, plasma, po, 10 mg/kg, mean, oral gavage 10 mg/kg, 1.0 hr
[23] = male, Sprague-Dawley, rat, plasma, po, 10 mg/kg, mean, oral gavage 10 mg/kg, 2.0 hr
[24] = male, Sprague-Dawley, rat, plasma, po, 10 mg/kg, mean, oral gavage 10 mg/kg, 4.0 hr
[25] = male, Sprague-Dawley, rat, plasma, po, 10 mg/kg, mean, oral gavage 10 mg/kg, 6.0 hr
[26] = male, Sprague-Dawley, rat, plasma, po, 10 mg/kg, mean, oral gavage 10 mg/kg, 8.0 hr
[27] = male, Sprague-Dawley, rat, plasma, po, 10 mg/kg, mean, oral gavage 10 mg/kg, read-out: Cmax
[28] = male, Sprague-Dawley, rat, plasma, po, 10 mg/kg, mean, oral gavage 10 mg/kg, read-out: tmax
[29] = IP injection 2 mg/kg, study days 3 and 4
[30] = IP injection 10 mg/kg once per day, study days 1-3, observed on study days 2-4

SMILES: CNCC(=O)NCCCN1CCC(CCCN2c3ccccc3Sc3ccc(C(F)(F)F)cc32)CC1 [ICI-1259, 2-(methylamino)-N-(3-(4-(3-(2-(trifluoromethyl)-10H-phenothiazin-10-yl)propyl)piperidin-1-yl)propyl)acetamide]
- dose absorbed after oral dosing [1]: approximately 38%
- AUClast [1, 3]: 98.7 ng·h/mL and 74.2 ng·h/mL
- Cmax [1, 3]: 28.4 ng/mL and 24.3 ng/mL
- Dose Normalized AUClast [1, 3]: 6.52 kg·ng·h/mL/mg and 9.87 kg·ng·h/mL/mg and 7.42 kg·ng·h/mL/mg
- Plasma concentration ([1]; individual rats, oral gavage 10 mg/kg, 0.083 hr, BLOQ = below limit of quantitation (1 ng/mL)): BLOQ
- Plasma concentration [1, 4]: 1.10 ng/mL and 3.38 ng/mL and 4.62 ng/mL
- Plasma concentration [1, 5]: 1.56 ng/mL and 3.45 ng/mL and 5.39 ng/mL
- Plasma concentration [1, 6]: 5.21 ng/mL and 17.6 ng/mL and 4.81 ng/mL
- Plasma concentration [1, 7]: 28.4 ng/mL and 24.3 ng/mL
- Plasma concentration [1, 8]: 7.49 ng/mL and 7.34 ng/mL
- Plasma concentration [1, 9]: 10.8 ng/mL and 6.73 ng/mL
- Plasma concentration [1, 10]: 4.35 ng/mL and 3.04 ng/mL
- bioavailability [1, 11]: 17% and 13%
- AUC(0-t) [1, 12]: 65.2 ng·h/mL
- concentration at 2 hr [1, 13]: 16.6 ng/mL
- concentration at 4 hr ([1]; male, Sprague-Dawley, rat, plasma, po, 10 mg/kg, individual rats, oral gavage 10 mg/kg, 4.0 hr): 8.31 ng/mL
- concentration at 6 hr ([1]; male, Sprague-Dawley, rat, plasma, po, 10 mg/kg, individual rats, oral gavage 10 mg/kg, 6.0 hr): 7.85 ng/mL
- concentration at 8 hr [1, 14]: 3.28 ng/mL
- bioavailability [1, 15]: 11%
- Cmax [1, 16]: 16.6 ng/mL
- Tmax [1, 17]: 2 h
- bioavailability [1, 18]: 14%
- AUC(0-t) [1, 19]: 79.4 ng·h/mL
- concentration at 0.25 hr [1, 20]: 3.03 ng/mL
- concentration at 0.5 hr [1, 21]: 3.47 ng/mL
- concentration at 1 hr [1, 22]: 9.21 ng/mL
- concentration at 2 hr [1, 23]: 23.1 ng/mL
- concentration at 4 hr [1, 24]: 7.71 ng/mL
- concentration at 6 hr [1, 25]: 8.46 ng/mL
- concentration at 8 hr [1, 26]: 3.56 ng/mL
- Cmax [1, 27]: 23.1 ng/mL
- Tmax [1, 28]: 2 h
- Dose Normalized AUClast ([1]; mean, oral gavage 10 mg/kg): 7.94 kg·ng·h/mL/mg
- reduction in ankle swelling (ankle diameter) ([2]; IP injection 0.4 mg/kg): Statistically significant results were only observed for ICI-1260 at 2 mg/kg
- reduction in ankle swelling (ankle diameter) [2, 29]: Statistically significant results were only observed for ICI-1260 at 2 mg/kg
- reduction in ankle swelling (ankle diameter) [2, 30]: statistically significant results were observed

SMILES: NCC(=O)NCCCN1CCC(CCCN2c3ccccc3Sc3ccc(C(F)(F)F)cc32)CC1 [ICI-1260, 2-amino-N-(3-(4-(3-(2-(trifluoromethyl)-10H-phenothiazin-10-yl)propyl)piperidin-1-yl)propyl)acetamide]
- dose absorbed after oral dosing [1]: approximately 26%
- AUClast [1, 3]: 84.9 ng·h/mL and 95.9 ng·h/mL
- Cmax [1, 3]: 22.2 ng/mL and 25.9 ng/mL
- Dose Normalized AUClast [1, 3]: 11.2 kg·ng·h/mL/mg and 8.49 kg·ng·h/mL/mg and 9.59 kg·ng·h/mL/mg
- Dose Normalized AUC∞ [1, 3]: 9.40 kg·ng·h/mL/mg and 11.1 kg·ng·h/mL/mg
- Tmax [1, 3]: 1.0 h
- t1/2 [1, 3]: 2.6 h
- Plasma concentration ([1]; individual rats, oral gavage 10 mg/kg, 0.083 hr, BLOQ = below limit of quantitation (1 ng/mL), 10 mg/kg): 1.33 ng/mL and BLOQ
- Plasma concentration [1, 4]: 9.32 ng/mL and 2.68 ng/mL and 7.31 ng/mL
- Plasma concentration [1, 5]: 8.00 ng/mL and 3.02 ng/mL and 6.16 ng/mL
- Plasma concentration [1, 6]: 5.33 ng/mL and 5.38 ng/mL and 25.9 ng/mL
- Plasma concentration [1, 7]: 22.2 ng/mL and 24.0 ng/mL
- Plasma concentration [1, 8]: 4.89 ng/mL and 11.7 ng/mL and 7.39 ng/mL
- Plasma concentration [1, 9]: 19.8 ng/mL and 9.71 ng/mL and 8.98 ng/mL
- Plasma concentration [1, 10]: 2.87 ng/mL and 3.93 ng/mL
- bioavailability [1, 11]: 9.0%
- AUC∞ ([1]; individual rats, oral gavage 10 mg/kg, extrapolated to infinity, 10 mg/kg): 111 ng·h/mL
- AUC(0-t) [1, 12]: 112 ng·h/mL
- half-life [1, 12]: 2.2 h
- concentration at 0.083 hr ([1]; male, Sprague-Dawley, rat, plasma, po, 10 mg/kg, individual rats, oral gavage 10 mg/kg, 0.083 hr, BLOQ = below limit of quantitation (1 ng/mL)): 1.48 ng/mL
- concentration at 2 hr [1, 13]: 33.8 ng/mL
- concentration at 8 hr [1, 14]: 3.13 ng/mL
- bioavailability [1, 15]: 13%
- AUC(0-inf) ([1]; male, Sprague-Dawley, rat, plasma, po, 10 mg/kg, individual rats, oral gavage 10 mg/kg, extrapolated to infinity): 94 ng·h/mL
- Cmax [1, 16]: 33.8 ng/mL
- Tmax [1, 17]: 2 h
- bioavailability [1, 18]: 11%
- AUC(0-t) [1, 19]: 97.7 ng·h/mL
- half-life [1, 19]: 2.4 h
- concentration at 0.083 hr ([1]; male, Sprague-Dawley, rat, plasma, po, 10 mg/kg, mean, oral gavage 10 mg/kg, 0.083 hr): 1.41 ng/mL
- concentration at 0.25 hr [1, 20]: 6.44 ng/mL
- concentration at 0.5 hr [1, 21]: 5.73 ng/mL
- concentration at 1 hr [1, 22]: 12.2 ng/mL
- concentration at 2 hr [1, 23]: 26.7 ng/mL
- concentration at 4 hr [1, 24]: 7.99 ng/mL
- concentration at 6 hr [1, 25]: 12.8 ng/mL
- concentration at 8 hr [1, 26]: 3.31 ng/mL
- AUC(0-inf) ([1]; male, Sprague-Dawley, rat, plasma, po, 10 mg/kg, mean, oral gavage 10 mg/kg, extrapolated to infinity): 102 ng·h/mL
- Cmax [1, 27]: 27.3 ng/mL
- Tmax [1, 28]: 1.7 h
- Dose Normalized AUClast ([1]; mean, oral gavage 10 mg/kg): 9.77 kg·ng·h/mL/mg
- Dose Normalized AUC∞ ([1]; mean, oral gavage 10 mg/kg): 10.2 kg·ng·h/mL/mg
- reduction in ankle swelling (ankle diameter) ([2]; IP injection 0.4 mg/kg): Statistically significant results were only observed for ICI-1260 at 2 mg/kg
- reduction in ankle swelling (ankle diameter) [2, 29]: Statistically significant results
- reduction in ankle swelling (ankle diameter) [2, 30]: statistically significant results were observed
